# Assay results from publication PMC8187479, “Sugar phosphate activation of the stress sensor eIF2B” (Nature Communications, 2021).
# Where “and” joins values, the source holds several entries; their conditions need not be identical. Equal entries are not always repeated.
# Experiments:
# [1] = biological target: T1, eIF2B in eIF2Bα^E198K HEK293T lysate (Homo sapiens, UniProt P49770+Q14232+Q9UI10, E198K); assay: GEF activity assay with eIF2Bα E198K HEK293T lysate; assay type: biochemical
# T1 construct: endogenous in cells; host or cells: HEK293T, CRISPR knock-in eIF2Bα E198K (homozygous), lysate
# Protocol: (§1) Bodipy-FL-GDP-loaded eIF2 was used as a substrate for recombinant eIF2B. The assay was performed in 384-well plates. Reactions were read on a SpectraMax i3x plate reader (Molecular Devices) using the instrument’s Softmax Pro software with the following parameters: plate temperature = 25 °C; excitation wavelength = 485 nm (15 nm width); emission wavelength = 535 nm (25 nm width); read duration = 30 min at 45 s intervals. Data were analyzed in Prism. GDP release half-lives were calculated by fitting single-exponential decay curves.
# (§2) For unbiased screening, MIDAS metabolite libraries at 10 mM stock concentration were dispensed into wells of the assay plate using an Echo Acoustic Liquid Handler (Labcyte). In a final assay volume of 10 μL/well, the following conditions were kept constant: 25 nM Bodipy-FL-GDP-loaded eIF2, 4 nM phospho-eIF2, 0.1 mM GDP, 1 mg/mL BSA, 1 nM eIF2B, 10 μM metabolite. A single well was run for each metabolite. For targeted experiments with recombinant wild-type and mutant eIF2Bα, the following conditions were used: 50 nM Bodipy-FL-GDP-loaded eIF2, 0.1 mM GDP, 1 mg/ml BSA, 20 nM eIF2B. For targeted experiments with HEK293T lysates, the following conditions were used: 50 nM Bodipy-FL-GDP-loaded eIF2, 0.1 mM GDP, 1 mg/ml BSA, 0.1 or 0.3 mg/ml lysates.
# [2] = biological target: T2, phospho-eIF2α binding to eIF2B (Homo sapiens, UniProt P49770+Q14232+Q9UI10); assay: Phospho-eIF2α co-immunoprecipitation with FLAG-tagged eIF2B; conditions: lysate of thapsigargin-treated HEK293T eIF2Bβ-FLAG cells; ligand 2 h at 4 °C
# T2 construct: endogenous in cells; host or cells: HEK293T with FLAG knock-in at the endogenous eIF2Bβ locus, treated with thapsigargin; lysate, anti-FLAG IP
# Protocol: HEK293T cells endogenously expressing eIF2Bβ with a C-terminal FLAG tag were maintained in DMEM High Glucose (Corning CellGro) supplemented with 10% FBS (Gibco) and antibiotic-antimycotic (Gibco). Upon reaching 90% confluency, cells were treated with either DMSO or 100 nM thapsigargin (Sigma) for 4 h. Cells were harvested and lysed in 25 mM HEPES, 150 mM KCl, 1% NP-40, 1 mM EDTA, pH 7.4 + Complete protease inhibitor cocktail (Roche) and PhosStop (Roche) on ice for 20 min. Lysates were cleared by centrifugation at 18,000 × g, 20 min, 4 °C, and transferred to Eppendorf tubes containing anti-FLAG M2 magnetic beads (Sigma). Mixtures were incubated overnight at 4 °C. To test the effect of ligands, these were added to the mixtures and incubated for an additional 2 h at 4 °C. Beads were washed three times with lysis buffer, eluted with 1× LDS buffer (Invitrogen), and subjected to SDS-PAGE followed by Western Blot with the indicated antibodies.
# eIF2Bα = biological target: T3, eIF2Bα (Homo sapiens, UniProt Q14232); assay: Differential scanning fluorimetry (Protein Thermal Shift), eIF2Bα Tm; assay type: binding; conditions: for Tm of eIF2Bα: individual replicates Rep 1-4, control without metabolite about 64.1
# T3 construct: made in house; host or cells: E. coli BL21(DE3)
# T3 sequence (Q14232 1-305): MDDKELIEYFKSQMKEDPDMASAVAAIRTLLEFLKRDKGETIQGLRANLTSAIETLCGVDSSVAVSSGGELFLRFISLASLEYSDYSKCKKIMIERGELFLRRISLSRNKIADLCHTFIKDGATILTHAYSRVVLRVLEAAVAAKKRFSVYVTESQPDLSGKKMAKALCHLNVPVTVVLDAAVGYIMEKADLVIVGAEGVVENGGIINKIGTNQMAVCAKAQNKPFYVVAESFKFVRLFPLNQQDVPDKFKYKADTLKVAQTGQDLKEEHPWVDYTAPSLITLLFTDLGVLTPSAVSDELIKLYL
# Procedure, shortened: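 Human eIF2Bα at 1.5 μM was heated with Thermal Shift dye and metabolites in dose response. Tm for each condition came from Boltzmann fits of the melt curves.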
# [3] = biological target: T4, eIF2B decamer in eIF2Bα^V183F HEK293T lysate (Homo sapiens, UniProt P49770+Q14232+Q9UI10, V183F); assay: Sucrose gradient centrifugation, eIF2B complex assembly, eIF2Bα V183F HEK293T lysate; assay type: biochemical; conditions: 500 nM ISRIB, 200 μM F6P
# T4 construct: endogenous in cells
# Protocol: (§3) WT or eIF2Bα mutant HEK293T cells were harvested and lysed in 50 mM HEPES, 400 mM KCl, 1 mM DTT, 4 mM Mg(OAc)2, pH 7.5 + 0.5% Triton-X-100 + EDTA-free protease inhibitor cocktail (Roche) on ice for 30 min. Lysates were cleared by centrifugation at 48,000 × g, 4 °C for 30 min. 100 μL of each cleared lysate was loaded onto a 5–20% sucrose gradient prepared in a 13 × 51 mm ultracentrifuge tube using a Gradient Station (Biocomp) and centrifuged in a SW55 Ti rotor at 152,000 × g, 4 °C for 12 h. After centrifugation, 24 × 200 μL fractions were manually collected from the top to bottom of each gradient. Each fraction was subjected to methanol/chloroform precipitation and SDS-PAGE followed by Western Blot with the indicated antibodies. Blots were imaged on a ChemiDoc MP (Bio-Rad), and band intensities were quantified using the instrument’s Image Lab software. Each value was then divided by total intensity obtained across all fractions to determine percent enrichment of each subunit in each fraction.
# [4] = biological target: T5, eIF2B decamer in eIF2Bα^E198K HEK293T lysate (Homo sapiens, UniProt P49770+Q14232+Q9UI10, E198K); assay: Sucrose gradient centrifugation, eIF2B complex assembly, eIF2Bα E198K HEK293T lysate; assay type: biochemical
# T5 construct: endogenous in cells; host or cells: HEK293T, CRISPR knock-in eIF2Bα E198K (homozygous), lysate
# Protocol: as §3
# [5] = biological target: T6, eIF2B in WT HEK293T lysate (Homo sapiens, UniProt P49770+Q14232+Q9UI10); assay: GEF activity assay with WT HEK293T lysate; assay type: biochemical
# T6 construct: endogenous in cells; host or cells: HEK293T (wild type) lysate
# Protocol: as §1, §2
# T1 sequence (Q14232 whole entry E198K): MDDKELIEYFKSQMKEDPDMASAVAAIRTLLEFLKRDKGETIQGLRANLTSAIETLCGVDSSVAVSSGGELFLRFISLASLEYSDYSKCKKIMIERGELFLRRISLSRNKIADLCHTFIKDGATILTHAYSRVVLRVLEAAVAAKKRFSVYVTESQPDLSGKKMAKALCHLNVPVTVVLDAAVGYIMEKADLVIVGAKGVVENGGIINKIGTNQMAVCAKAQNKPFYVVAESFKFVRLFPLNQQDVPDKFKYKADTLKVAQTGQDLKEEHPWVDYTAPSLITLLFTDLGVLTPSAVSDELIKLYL
# T1 sequence (P49770 whole entry): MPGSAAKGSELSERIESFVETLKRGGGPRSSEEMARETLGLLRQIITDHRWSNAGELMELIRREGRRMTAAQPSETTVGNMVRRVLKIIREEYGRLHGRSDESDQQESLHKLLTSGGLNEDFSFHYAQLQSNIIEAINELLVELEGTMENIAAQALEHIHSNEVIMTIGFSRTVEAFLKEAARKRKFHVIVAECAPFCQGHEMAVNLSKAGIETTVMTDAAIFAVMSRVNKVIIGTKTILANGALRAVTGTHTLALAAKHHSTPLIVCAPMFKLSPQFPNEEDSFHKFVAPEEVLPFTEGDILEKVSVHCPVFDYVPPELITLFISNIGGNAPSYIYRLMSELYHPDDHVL
# T1 sequence (Q9UI10 whole entry): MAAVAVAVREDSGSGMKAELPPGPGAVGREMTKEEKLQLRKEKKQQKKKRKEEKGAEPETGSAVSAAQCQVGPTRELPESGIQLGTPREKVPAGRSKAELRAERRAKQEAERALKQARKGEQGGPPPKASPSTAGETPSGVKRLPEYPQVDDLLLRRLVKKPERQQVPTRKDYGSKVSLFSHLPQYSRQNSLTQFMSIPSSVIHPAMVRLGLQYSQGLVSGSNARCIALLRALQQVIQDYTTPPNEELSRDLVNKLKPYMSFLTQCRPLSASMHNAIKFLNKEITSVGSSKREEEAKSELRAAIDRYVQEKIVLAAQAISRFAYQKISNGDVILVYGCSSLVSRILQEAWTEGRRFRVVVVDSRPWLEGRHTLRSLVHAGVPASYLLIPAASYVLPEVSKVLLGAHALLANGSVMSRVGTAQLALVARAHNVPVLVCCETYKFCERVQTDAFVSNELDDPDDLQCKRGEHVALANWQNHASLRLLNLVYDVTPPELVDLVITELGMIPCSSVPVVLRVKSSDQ
# T1 sequence (Q9NR50 whole entry partner): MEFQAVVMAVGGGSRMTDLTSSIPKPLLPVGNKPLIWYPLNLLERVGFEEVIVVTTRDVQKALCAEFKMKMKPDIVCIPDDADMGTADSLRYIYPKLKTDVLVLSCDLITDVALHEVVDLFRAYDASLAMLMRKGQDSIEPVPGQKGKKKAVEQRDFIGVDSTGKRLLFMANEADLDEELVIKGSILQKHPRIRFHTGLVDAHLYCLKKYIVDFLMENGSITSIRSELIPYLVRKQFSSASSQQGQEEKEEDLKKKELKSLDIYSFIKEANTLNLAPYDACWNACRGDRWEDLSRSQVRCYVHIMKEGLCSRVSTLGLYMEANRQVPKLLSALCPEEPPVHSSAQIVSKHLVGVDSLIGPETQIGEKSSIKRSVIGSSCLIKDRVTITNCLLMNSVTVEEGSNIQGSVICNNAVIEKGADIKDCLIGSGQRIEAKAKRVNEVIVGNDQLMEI
# T1 sequence (Q13144 whole entry partner): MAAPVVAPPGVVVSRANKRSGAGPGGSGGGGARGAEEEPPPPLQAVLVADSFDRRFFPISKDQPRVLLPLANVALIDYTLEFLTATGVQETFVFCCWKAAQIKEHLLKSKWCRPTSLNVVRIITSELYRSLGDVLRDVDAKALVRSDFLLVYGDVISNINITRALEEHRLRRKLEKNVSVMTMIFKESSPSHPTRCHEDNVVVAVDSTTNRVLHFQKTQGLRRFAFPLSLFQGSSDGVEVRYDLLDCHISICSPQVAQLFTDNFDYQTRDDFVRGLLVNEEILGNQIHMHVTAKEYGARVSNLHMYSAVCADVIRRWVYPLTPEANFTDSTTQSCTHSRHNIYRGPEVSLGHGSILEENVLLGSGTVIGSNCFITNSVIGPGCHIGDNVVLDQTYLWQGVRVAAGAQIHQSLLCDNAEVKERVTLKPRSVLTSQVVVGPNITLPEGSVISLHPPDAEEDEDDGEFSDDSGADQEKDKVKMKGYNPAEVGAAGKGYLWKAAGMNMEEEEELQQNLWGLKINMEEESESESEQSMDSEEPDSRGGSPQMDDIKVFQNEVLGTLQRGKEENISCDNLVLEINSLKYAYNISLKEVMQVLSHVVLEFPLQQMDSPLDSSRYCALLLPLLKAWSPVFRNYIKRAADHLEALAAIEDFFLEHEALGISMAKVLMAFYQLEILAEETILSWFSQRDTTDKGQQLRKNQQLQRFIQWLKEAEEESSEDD
# T5 sequence (Q14232 whole entry E198K): as the sequence (Q14232 whole entry E198K) above
# T5 sequence (P49770 whole entry): as the sequence (P49770 whole entry) above
# T5 sequence (Q9UI10 whole entry): as the sequence (Q9UI10 whole entry) above
# T5 sequence (Q9NR50 whole entry partner): as the sequence (Q9NR50 whole entry partner) above
# T5 sequence (Q13144 whole entry partner): as the sequence (Q13144 whole entry partner) above
# T4 sequence (Q14232 whole entry V183F): as the sequence (Q14232 whole entry E198K) above, with V183F, K198E counted along it
# T4 sequence (P49770 whole entry): as the sequence (P49770 whole entry) above
# T4 sequence (Q9UI10 whole entry): as the sequence (Q9UI10 whole entry) above
# T4 sequence (Q9NR50 whole entry partner): as the sequence (Q9NR50 whole entry partner) above
# T4 sequence (Q13144 whole entry partner): as the sequence (Q13144 whole entry partner) above
# T6 sequence (P49770 whole entry, one chain of several): as the sequence (P49770 whole entry) above
# T6 sequence (Q9UI10 whole entry, one chain of several): as the sequence (Q9UI10 whole entry) above
# T6 sequence (Q9NR50 whole entry partner, one chain of several): as the sequence (Q9NR50 whole entry partner) above
# T6 sequence (Q13144 whole entry partner, one chain of several): as the sequence (Q13144 whole entry partner) above
# T2 sequence (P49770 whole entry, one chain of several): as the sequence (P49770 whole entry) above
# T2 sequence (Q9UI10 whole entry, one chain of several): as the sequence (Q9UI10 whole entry) above
# T2 sequence (Q9NR50 whole entry partner, one chain of several): as the sequence (Q9NR50 whole entry partner) above
# T2 sequence (Q13144 whole entry partner, one chain of several): as the sequence (Q13144 whole entry partner) above
smiles,measurement,setting,value
"O=C(CO)[C@@H](O)[C@H](O)[C@H](O)COP(=O)(O)O [F6P, fructose-6-phosphate]",effect on GEF activity of eIF2Bα E198K lysate,[1],does not respond
same,co-immunoprecipitation of phospho-eIF2α with FLAG-tagged eIF2B,[2],did not decrease the interaction
same,Tm of eIF2Bα,eIF2Bα; 0.33 mM metabolite,64.8334 °C and 64.3598 °C and 65.3978 °C and 64.9639 °C
same,Tm of eIF2Bα,eIF2Bα; 1 mM metabolite,66.8037 °C and 65.9412 °C and 67.2839 °C and 67.2375 °C
same,Tm of eIF2Bα,eIF2Bα; 3.3 mM metabolite,67.7489 °C and 67.4475 °C and 67.8791 °C and 67.7249 °C
same,Tm of eIF2Bα,eIF2Bα; 10 mM metabolite,69.8589 °C and 69.0448 °C and 70.0639 °C and 69.9908 °C
same,Tm shift of eIF2Bα2,eIF2Bα; largest shift seen in dose-response,6 °C
same,eIF2B decamer formation,[3],promoted decamer formation at comparable levels
same,eIF2B decamer formation,[4],unresponsive
same,effect on GEF activity of WT lysate,[5],stimulated
